Experimental data as given in patent publication US10827753B2, “Compositions and methods for controlling nematodes” (Monsanto Technology LLC, priority 2007, dated 2020).
Marks after values point to notes of the source that are not given here.

What was measured:
[1] = system: soybean cyst nematode (SCN); assay: SCN greenhouse sand assay on soybean plants; assay type: in vivo, Heterodera glycines
Source text: Soybeans seeds are planted in 100% sand in two inch square plastic pots.
Chemical treatment is done when the soybeans show the first trifoliate beginning to emerge about 10 to 12 days after planting. At least four hours after chemical application the nematode soybean cyst nematode (SCN) eggs are applied and 28 days after the egg inoculation the test is harvested.
One milligram of chemistry per four pots is equal to one kilogram per hectare of chemical. A standard test uses four replications. For rates above 2 kg/ha, the desired amount of chemical is weighed into a 30 ml vial (example: 8 kg/ha rate=8 mg chemical in 30 ml vial). The chemical is dissolved in 2 ml of appropriate solvent, generally acetone. For rates below 2 kg/ha, 2 milligrams of chemistry is weighed into the vial and dissolved in 2 ml of the solvent. The appropriate amount of chemical concentrate is then pipetted into a separate 30 ml vial and solvent is added to bring the volume to 2 ml (example 0.5 kg/ha=0.5 ml of concentrate+1.5 ml solvent). Each dissolved concentrate is then brought to a total of 20 milliliters using 0.05% Triton X 100 surfactant solution.
Pots to be treated are moist but not saturated. To each of four pots, five milliliters of the appropriate chemical solution is pipetted to the media surface making sure to avoid contact with the base of the plant. Immediately following chemical application, using a mist nozzle, the pot surface is wetted sufficiently to saturate the pot watering in the chemistry. The chemical application is done in the morning.
Nematode eggs, either SCN or RKN, are added to distilled water to create a concentration of 1000 vermiform eggs […]. At least four hours after chemical treatment the eggs are applied to the treated pots plus non-treated check plants. A small hole about 1 cm deep is punched into the pot surface. One milliliter of the nematode egg slurry is pipetted into the hole. Immediately afterwards the hole is gently covered. Watering of the test plants is then restricted to only water as needed to prevent wilt for a period of 24 hours. After the 24 hour restricted watering, normal sub-irrigation watering is done for the duration of the test.

Meloidogyne incognita = assay: Fall nematicidal field testing on squash microplots; assay type: in vivo; settings: for control of root galling compared with oxamyl at an equivalent rate: 2 kg/ha
Source text: The test site was located at 3511 Highway F in New Melle, Mo., Saint Charles county. The soil was a native prairie/pasture covering silty clay loam soil. Holes were dug using a Bobcat 763 skid loader with a 12-inch auger to a depth of 18 inches. Total volume of each hole was about 1.2 cubic feet. Six cubic yards of topsoil and 9 tons of river sand were purchased from Dardenne Farms Topsoil. Mixing to a ratio of 4 volumes sand to 1 volume soil was accomplished using a trailer-mounted 9 cubic foot concrete mixer. Holes were filled and then re-filled 5 days later after settling. The mixture was 92.5% sand, 2.5% silt, and 5% clay. Organic matter was 0.2% and pH was 6.8.
Treatments were arranged in a block design with the blocks laid out perpendicular to the primary slope and parallel to secondary slope. There are 7 inoculated controls and 5 non-inoculated controls and the distributions of disease severity appeared independent of location.
Application rates are expressed as kg of active material per hectare, and the mg per plot is based on the surface area of the bored and filled holes (0.000008559 Ha). The DC compounds were formulated immediately before application as follows: 1) the amount required to treat all six replicates was dissolved in 300 ml of acetone, 2) for each plot 50 ml of that solution was added to a graduated cylinder with 2 ml of 12.5% Triton X100 and the volume was raised to 500 ml with tap water. The resultant mix is the same as used in the standard greenhouse assays (10% acetone, 0.05%×100). The oxamyl treatments were prepared from Vydate 2 L formulated the same way. The 500 ml was placed in a watering can and the entire volume was evenly sprinkled over the surface of the plot. No runoff occurred and pooling, if any, was short lived. The final drench volume was 0.58 ml/cm^2, compared to 0.2 ml/cm^2 used in our greenhouse, however the microplots are much deeper so the drench volume applied per soil volume treated is roughly the same.
Meloidogyne incognita eggs were harvested over a two week period and stored at approximately 5° C. until needed. A stock of 5.6 million vermiform eggs was adjusted to 9000/ml in 620 ml. One day after treatment, two holes were made in each plot about 7 cm apart and equidistant from the squash plants. Five ml of egg suspension was pipetted into each hole, which was then sealed and the plot lightly watered. A total of 90,000 vermiform eggs were added to each plot.
The first root evaluation was at 28 DAT. The tops were cut off and weighed immediately in the field, and the roots were carefully dug out so as not to disturb the remaining plant.

## CCOP(=O)(NC(C)C)Oc1ccc(SC)c(C)c1 (stereo not drawn) [Fenamiphos, fenamiphos, reference compound]
[1]; 0.1 kg/ha, test d
  percent control (cyst number reduction) relative to the control blank treatment: 5^d percent
[1]; 0.25 kg/ha, test d
  percent control (cyst number reduction) relative to the control blank treatment: 26^d percent
[1]; 1 kg/ha, test a
  percent control (cyst number reduction) relative to the control blank treatment: 98^a percent
[1]; 1 kg/ha, test b
  percent control (cyst number reduction) relative to the control blank treatment: 98^b percent
[1]; 1 kg/ha, test c
  percent control (cyst number reduction) relative to the control blank treatment: 94^c percent

## Brc1ccc(-c2cnc(-c3cccs3)o2)cc1 [compound 4776]
Meloidogyne incognita; 2 kg ai/ha drench, squash
  RG28 = % root galls at 28 days after treatment: 19.0%
  RG43 = % root galls at 43 days after treatment: 26.8%
Meloidogyne incognita; 28 day time point
  control of root galling compared with oxamyl at an equivalent rate: statistically better than oxamyl
Meloidogyne incognita; 43 day time point
  control of root galling compared with oxamyl at an equivalent rate: statistically better than oxamyl
